Data taken from patent publication US5624923A, “Tricyclic diazepine vasopressin antagonists and oxytocin antagonists” (priority 1995, dated 1997).
Read-outs that look alike come from different tables or passages of the source. Values belong to the compound of their own block, whether it stands above or below them.

Key:
[1] = system: Vasopressin V1; test: Vasopressin V1 Antagonist Activity in Conscious Rats (vasopressin vasopressor response); assay type: in vivo, rat; design: Average Change: unit not given here; settings: 10 mg/kg i.v., SHR
Description: Vasopressin V1 Antagonist Activity in Conscious Rats
Conscious rats are restrained in a supine position with elastic tape. The area at the base of the tail is locally anesthetized by subcutaneous infiltration with 2% procaine (0.2 ml). Using aseptic technique the ventral caudal tail artery is isolated and a cannula made of PE 10 and 20 (heat-fused) tubing is passed into the lower abdominal aorta. The cannula is secured, heparinized (1000 i.u./cc), sealed and the wound closed with one or two stitches of Dexon 4-0. The caudal vein is also cannulated in the same manner for intravenous drug administration. The duration of the surgery is approximately 5 minutes. Additional local anesthesia (2% procaine or lidocaine) is provided as needed.
The animals are placed in plastic restraining cages in an upright position. The cannula is attached to a Statham P23Db pressure transducer and pulsatile blood pressure is recorded. […] The vasopressin injections are repeated 30,60,90,120,180,240 and 300 min. later. Percentage of antagonism by the compound is calculated using the pre-drug vasopressin vasopressor response as 100%.

[2] = molecular target: T1, Rat Kidney Medullary V2 Receptors (Rattus norvegicus, UniProt Q00788); test: Binding Assay to Rat Kidney Medullary V2 Receptors
T1 construct: Medullary tissues from rat kidneys are dissected out; from tissue; host or cells: rat kidney medulla membranes
Description: Binding Assay to Rat Kidney Medullary V2 Receptors
Medullary tissues from rat kidneys are dissected out, cut into small pieces and soaked in a […] sodium chloride solution containing 1.0 mM EDTA with many changes of the liquid phase, until the solution is clear of blood. The tissue is homogenized in a 0.25M sucrose solution containing 1.0 mM EDTA and 0.1 mM PMSF using a Potter-Elvehjem homogenizer with a teflon pestle. The homogenate is filtered through several layers (4 layers) of cheese cloth. The filtrate is rehomogenized using a dounce homogenizer, with a tight fitting pestle. The final homogenate is centrifuged at 1500× g for 15 min. The nuclear pellet is discarded and the supernatant fluid recentrifuged at 40,000× g for 30 min. The resulting pellet formed contains a dark inner part with the exterior., slightly pink. The pink outer part is suspended in a small amount of 50.0 mM Tris. HCl buffer, pH 7.4. The protein content is determined by the Lowry's method (Lowry et al., J. Biol. Chem., 1953). The membrane suspension is stored at -70° C. in 50.0 mM Tris HCl, containing 0.2% inactivated BSA and 0.1 mM PMSF in aliquots of 1.0 ml containing 10.0 mg protein per ml of suspension until use in subsequent binding experiments.
(§1) The plates are left undisturbed on the bench top for 120 min to reach equilibrium. Non-specific binding is assessed in the presence of 1.0 μM of unlabeled ligand, added in 20 μl volume. For test compounds, these are solubilized in 50% dimethylsulfoxide (DMSO) and added in 20.0 μl volume to a final incubation volume of 200 μl. Upon completion of binding, the content of each well is filtered off, using a Brandel® cell Harvester (Gaithersburg, Md.). The radioactivity trapped on the filter disk by the ligand-receptor complex is assessed by liquid scintillation counting in a Packard LS Counter, with an efficiency of 65% for tritium. The data are analyzed for IC50 values by the LUNDON-2 program for competition (LUNDON SOFTWARE, Ohio).

[3] = molecular target: T2, Rat Hepatic V1 Receptors (Rattus norvegicus, UniProt P30560); test: Binding Assay to Rat Hepatic V1 Receptors
T2 construct: Rat liver plasma membranes expressing the vasopressin V1 receptor subtypes; from tissue; host or cells: rat liver plasma membranes
Description: Binding Assay to Rat Hepatic V1 Receptors
Rat liver plasma membranes expressing the vasopressin V1 receptor subtypes are isolated by sucrose density gradient according to the method described by Lesko et al., (1973). These membranes are quickly suspended in 50.0 mM Tris.HCl buffer, pH 7.4, containing 0.2% bovine serum albumin (BSA) and 0.1 mM phenylmethylsulfonylfluoride (PMSF) and kept frozen at -70° C. until used in subsequent binding experiments. For binding experiments, the following is added to the wells of a ninety-six well format microtiter plate: 100 μl of 100.0 mM Tris.HCl buffer containing 10.0 mM MgCl2, 0.2% heat inactivated BSA and a mixture of protease inhibitors: leupeptin, 1.0 mg %; aprotinin, 1.0 mg %; 1,10-phenanthroiine,2.0 mg %; trypsin inhibitor, 10.0 mg % and 0.1 mM PMSF, 20.0 μl of [phenylalanyl-3,4,5, -^3 H] vasopressin (S.A. 45.1 Ci/mmole) at 0.8 nM, and the reaction initiated by the addition of 80 μl of tissue membranes containing 20 μg of tissue protein. The plates are kept undisturbed on the bench top at room temperature for 120 min. to reach equilibrium. Non-specific samples are assayed in the presence of 0.1 μM of the unlabeled antagonist phenylalanylvasopressin, added in 20.0 μl volume.
as §1, with “For” for “The plates are left undisturbed on the bench top for 120 min to reach equilibrium. Non-specific binding is assessed in the presence of 1.0 μM of unlabeled ligand, added in 20 μl volume. For”, “μl .” for “μl.”

[4] = rat kidney medulla membranes, read-out: V2 IC50
[5] = rat liver membranes, read-out: V1 IC50

T2 sequence (P30560 whole entry): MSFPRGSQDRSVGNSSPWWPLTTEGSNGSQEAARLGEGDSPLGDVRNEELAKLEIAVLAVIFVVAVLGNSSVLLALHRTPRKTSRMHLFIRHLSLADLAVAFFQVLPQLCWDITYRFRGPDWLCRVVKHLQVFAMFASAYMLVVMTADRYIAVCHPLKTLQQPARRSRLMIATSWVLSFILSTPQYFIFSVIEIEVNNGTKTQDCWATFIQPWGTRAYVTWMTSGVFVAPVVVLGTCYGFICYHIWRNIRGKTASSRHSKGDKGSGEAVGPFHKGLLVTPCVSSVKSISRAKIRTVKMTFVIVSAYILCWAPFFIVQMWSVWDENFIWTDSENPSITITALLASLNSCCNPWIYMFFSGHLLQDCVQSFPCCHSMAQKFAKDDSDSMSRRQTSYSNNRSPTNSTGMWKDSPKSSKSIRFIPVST
T1 sequence (Q00788 whole entry): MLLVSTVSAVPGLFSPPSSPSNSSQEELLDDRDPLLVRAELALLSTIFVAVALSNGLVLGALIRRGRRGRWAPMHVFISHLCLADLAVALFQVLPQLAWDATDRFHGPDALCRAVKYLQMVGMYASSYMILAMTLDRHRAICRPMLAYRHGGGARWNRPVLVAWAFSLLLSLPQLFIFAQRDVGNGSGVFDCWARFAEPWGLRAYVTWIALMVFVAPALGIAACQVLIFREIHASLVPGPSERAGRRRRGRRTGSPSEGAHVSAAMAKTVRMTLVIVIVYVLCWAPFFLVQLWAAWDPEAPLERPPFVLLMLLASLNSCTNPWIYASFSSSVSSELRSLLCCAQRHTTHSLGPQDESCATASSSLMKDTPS

IC50 [2, 4]: 77 nM
IC50 [3, 5]: 45 nM
SMILES: CCOc1ccccc1C(=O)Nc1ccc(C(=O)N2Cc3cccn3Cc3ccccc32)cc1 [Example 84, N-[4-(5H-Pyrrolo[2,1-c][1,4]benzodiazepin-10(11H)-ylcarbonyl)phenyl]-2-ethoxybenzamide]
% Inhibition ([1]; VAS 0.01 i.u./kg, 30 min): 77%
Average Change ([1]; VAS 0.01 i.u./kg, 30 min): 10.5
% Inhibition ([1]; VAS 0.01 i.u./kg, 60 min): 64%
Average Change ([1]; VAS 0.01 i.u./kg, 60 min): 16.5
% Inhibition ([1]; VAS 0.01 i.u./kg, 90 min): 72%
Average Change ([1]; VAS 0.01 i.u./kg, 90 min): 13
% Inhibition ([1]; VAS 0.01 i.u./kg, 120 min): 58%
Average Change ([1]; VAS 0.01 i.u./kg, 120 min): 19.5
% Inhibition ([1]; VAS 0.01 i.u./kg, 180 min): 47%
Average Change ([1]; VAS 0.01 i.u./kg, 180 min): 24.5
% Inhibition ([1]; VAS 0.01 i.u./kg, 240 min): 43%
Average Change ([1]; VAS 0.01 i.u./kg, 240 min): 26
% Inhibition ([1]; VAS 0.01 i.u./kg, 300 min): 51%
Average Change ([1]; VAS 0.01 i.u./kg, 300 min): 22.5
% Inhibition ([1]; VAS 0.02 i.u./kg, 30 min): 76%
Average Change ([1]; VAS 0.02 i.u./kg, 30 min): 14.5
% Inhibition ([1]; VAS 0.02 i.u./kg, 60 min): 45%
Average Change ([1]; VAS 0.02 i.u./kg, 60 min): 33.5
% Inhibition ([1]; VAS 0.02 i.u./kg, 90 min): 57%
Average Change ([1]; VAS 0.02 i.u./kg, 90 min): 26
% Inhibition ([1]; VAS 0.02 i.u./kg, 120 min): 47%
Average Change ([1]; VAS 0.02 i.u./kg, 120 min): 32.5
% Inhibition ([1]; VAS 0.02 i.u./kg, 180 min): 48%
Average Change ([1]; VAS 0.02 i.u./kg, 180 min): 31.5
% Inhibition ([1]; VAS 0.02 i.u./kg, 240 min): 39%
Average Change ([1]; VAS 0.02 i.u./kg, 240 min): 37
% Inhibition ([1]; VAS 0.02 i.u./kg, 300 min): 30%
Average Change ([1]; VAS 0.02 i.u./kg, 300 min): 43

inhibition at 10 µM ([2]; 10 μM, rat): 68%
IC50 [3, 5]: 140 nM
SMILES: O=C(c1ccc(NS(=O)(=O)c2cc(Cl)ccc2Cl)cc1)N1Cc2cccn2Cc2ccccc21 [Example 493, 10-[4-[[(2,5-Dichlorophenyl)sulfonyl]amino]benzoyl]-10,11-dihydro-5H-pyrrolo[2,1-c][1,4]benzodiazepine]

IC50 [2, 4]: 5800 nM
IC50 [3, 5]: 110 nM
SMILES: O=C(c1ccc(NS(=O)(=O)Cc2ccccc2)cc1)N1Cc2cccn2Cc2ccccc21 [Example 494, 10-[4-[[(Phenylmethyl)sulfonyl]amino]benzoyl]-10,11-dihydro-5H-pyrrolo[2,1-c][1,4]benzodiazepine]

IC50 [2, 4]: 350 nM
IC50 [3, 5]: 165 nM
SMILES: Cc1ccc(C(=O)Nc2ccc(C(=O)N3Cc4cccn4Cc4ccccc43)cc2)s1 [Example 355, N-[4-(5H-Pyrrolo[2,1-c][1,4]benzodiazepin-10(11)ylcarbonyl)phenyl]-5-methyl-2-thiophenecarboxamide]

The remaining lines, values behind:

SMILES: Cc1ccccc1C(=O)Nc1ccc(C(=O)N2Cc3ccc(Cl)n3Cc3ccccc32)cc1 [Example 41, N-[4-(3-Chloro-5H-pyrrolo[2,1c][1,4]benzodiazepine10(11H)ylcarbonyl)phenyl]-2-methylbenzamide]
% Inhibition ([1]; VAS 0.01 i.u./kg, 30 min): 45%
Average Change ([1]; VAS 0.01 i.u./kg, 30 min): 12
% Inhibition ([1]; VAS 0.01 i.u./kg, 60 min): 59%
Average Change ([1]; VAS 0.01 i.u./kg, 60 min): 9
% Inhibition ([1]; VAS 0.01 i.u./kg, 90 min): 36%
Average Change ([1]; VAS 0.01 i.u./kg, 90 min): 14
% Inhibition ([1]; VAS 0.01 i.u./kg, 120 min): 36%
Average Change ([1]; VAS 0.01 i.u./kg, 120 min): 14
% Inhibition ([1]; VAS 0.01 i.u./kg, 180 min): 39%
Average Change ([1]; VAS 0.01 i.u./kg, 180 min): 13.5
% Inhibition ([1]; VAS 0.01 i.u./kg, 240 min): 43%
Average Change ([1]; VAS 0.01 i.u./kg, 240 min): 12.5
% Inhibition ([1]; VAS 0.01 i.u./kg, 300 min): 32%
Average Change ([1]; VAS 0.01 i.u./kg, 300 min): 15
% Inhibition ([1]; VAS 0.02 i.u./kg, 30 min): 53%
Average Change ([1]; VAS 0.02 i.u./kg, 30 min): 23.5
% Inhibition ([1]; VAS 0.02 i.u./kg, 60 min): 64%
Average Change ([1]; VAS 0.02 i.u./kg, 60 min): 18
% Inhibition ([1]; VAS 0.02 i.u./kg, 90 min): 55%
Average Change ([1]; VAS 0.02 i.u./kg, 90 min): 22.5
% Inhibition ([1]; VAS 0.02 i.u./kg, 120 min): 67%
Average Change ([1]; VAS 0.02 i.u./kg, 120 min): 16.5
% Inhibition ([1]; VAS 0.02 i.u./kg, 180 min): 58%
Average Change ([1]; VAS 0.02 i.u./kg, 180 min): 21
% Inhibition ([1]; VAS 0.02 i.u./kg, 240 min): 53%
Average Change ([1]; VAS 0.02 i.u./kg, 240 min): 23.5
% Inhibition ([1]; VAS 0.02 i.u./kg, 300 min): 47%
Average Change ([1]; VAS 0.02 i.u./kg, 300 min): 27
IC50 [2, 4]: 17 nM
IC50 [3, 5]: 37 nM

SMILES: Cc1ccccc1C(=O)Nc1ccc(C(=O)N2Cc3ccc(CN4CCCCC4)n3Cc3ccccc32)cc1 [Example 661, N-[4-[[3-(1-piperidinylmethyl)-5H-pyrrolo[2,1-c][1,4]benzodiazepin-10(11H)-yl]carbonyl]phenyl]-2-methyl-benzamide]
IC50 [2, 4]: 57 nM
IC50 [3, 5]: 57 nM

SMILES: O=C(c1ccc(NP(=O)(Oc2ccccc2)Oc2ccccc2)cc1)N1Cc2cccn2Cc2ccccc21 [Example 492]
IC50 [2]: 3200 nM
IC50 [3]: 160 nM

SMILES: Cc1ccccc1C(=O)Nc1ccc(C(=O)N2Cc3ccc(CN4CCOCC4)n3Cc3ccccc32)cc1 [Example 662, N-[4-[[3-(4-morpholinomethyl)-5H-pyrrolo[2,1-c][1,4]benzodiazepin-10(11H)-yl]carbonyl]phenyl]-2-methyl-benzamide]
IC50 [2, 4]: 35 nM
IC50 [3, 5]: 40 nM

SMILES: O=C(Nc1ccc(C(=O)N2Cc3cccn3Cc3ccccc32)c(Cl)c1)c1cccc(C(F)(F)F)c1F [Example 699, N-[4-(5H-pyrrolo[2,1-c][1,4]benzodiazepin-10(11H)-ylcarbonyl)-3-chloro-phenyl]-2-fluoro-3-(trifluoromethyl)benzamide]
inhibition at 1 µM ([2]; 1 μM, rat): 100%
inhibition at 1 µM ([3]; 2 h, 1 μM, rat): 19%

SMILES: Cc1ccccc1C(=O)Nc1ccc(C(=O)N2Cc3ccc(CN(C)C)n3Cc3ccccc32)cc1 [Example 660]
IC50 [2, 4]: 64 nM
IC50 [3, 5]: 73 nM

SMILES: Cc1ccccc1C(=O)Nc1ccc(C(=O)N2Cc3ccc(CN4CCN(Cc5ccccc5)CC4)n3Cc3ccccc32)cc1 [Example 663, N-[4-[[3-[[4-(phenylmethyl)-1-piperazinyl]methyl]-5H-pyrrolo[2,1-c][1,4]-benzodiazepin-10(11H)-yl]carbonyl]-phenyl]-2-methylbenzamide]
IC50 [2, 4]: 25 nM
IC50 [3, 5]: 9 nM

SMILES: CC(=O)c1ccc2n1Cc1ccccc1N(C(=O)c1ccc(NC(=O)c3ccc(Cl)cc3Cl)cc1)C2 [Example 670, N-[4-[(3-Acetyl-5H-pyrrolo[2,1-c][1,4]benzodiazepin-10(11H)-yl]carbonyl]phenyl]-2,4-dichlorobenzamide]
IC50 [2, 4]: 290 nM
IC50 [3, 5]: 1100 nM

SMILES: Cc1ccccc1C(=O)Nc1ccc(C(=O)N2Cc3cccn3C(=O)c3ccccc32)cc1 [Example 40, 2-Methyl-N-[4-[(5-oxo-5H-pyrrolo[2,1-c]-[1,4]benzodiazepin 10(11H)-yl)carbonyl]phenyl]benzamide]
IC50 [2, 4]: 120 nM
IC50 [3, 5]: 2400 nM
